Consider 15 compounds from patent US7906657B2 (Merck Patent Gesellschaft MIT Beschraenkter Haftung, priority 2006, dated 2011).

Molecules are shown by their SMILES.

The target of this assay is T1, Recombinant human HSP90α (Homo sapiens, UniProt P07900).
T1 construct: host or cells: E. coli
In words: radioligand filter binding test with [3H]17AAG (HSP90 inhibition). As to conditions: competition with [3H]17AAG 0.08 μM; HSP90 1.5 μg/assay; 22° C., 30 min. An excerpt:
Test Method for the Measurement of HSP90 Inhibitors
The binding of geldanamycin or 17- allylamino-17-demethoxygeldanamycin (17AAG) to HSP90 and competitive inhibition thereof can be utilised in order to determine the inhibitory activity of the compounds according to the invention (Carreras et al. 2003, Chiosis et al. 2002).
In the specific case, a radioligand filter binding test is used. The radio-ligand used here is tritium-labelled 17-allylaminogeldanamycin, [3H]17AAG. This filter binding test allows a targeted search for inhibitors which interfere with the ATP binding site.
Recombinant human HSP90α (E. coli expressed, 95% purity);
[3H]17AAG (17-allylaminogeldanamycin, [allylamino-2,3-^3H. Specific activity: 1.11×10^12 Bq/mmol (Moravek, MT-1717);
HEPES filter buffer (50 mM HEPES, pH 7.0, 5 mM MgCl2, BSA 0.01%) Multiscreen FB (1 μm) filter plate (Millipore, MAFBNOB 50).
The 96-well microtitre filter plates are firstly irrigated and coated with 0.1% of polyethylenimine.
The test is carried out under the following conditions:
Reaction temperature 22° C.
Reaction time: 30 min., shaking at 800 rpm
50 mM HEPES HCI, pH 7.0, 5 mM MgCl2, 0.01% (w/v) BSA
At the end of the reaction, the supernatant in the filter plate is removed by suction with the aid of a vacuum manifold (Multiscreen Separation System, Millipore), and the filter is washed twice.
The filter plates are then measured in a beta counter (Microbeta, Wallac) with scintillator (Microscint 20, Packard).
“% of control” is determined from the “counts per minutes” values and the IC-50 value of a compound is calculated therefrom.
The IC50 is the point on the concentration scale where inhibition reaches its midpoint. Regarding `CN(Cc1ccccc1)C(=O)c1cc(-c2ccnn2-c2ccccc2Cl)c(O)cc1O` [Compound A2, 5-[5-(N-Benzyl-N-methylaminocarbonyl)-2,4-dihydroxyphenyl]-1-(2-chlorophenyl)-1H-pyrazole], the IC50 was 44 nM. On to `Cc1ccccc1-n1nccc1-c1cc(C(=O)N(C)Cc2ccc(F)cc2)c(O)cc1O` [Compound A5, 5-{5-[N-(4-Fluorobenzyl)-N-methylaminocarbonyl]-2,4-dihydroxyphenyl}-1-(2-methylphenyl)-1H-pyrazole], for which the half-inhibitory concentration (IC50) turned out to be 43 nM. As for `Cc1ccccc1-n1nccc1-c1cc(C(=O)N(C)Cc2ccccc2F)c(O)cc1O` [Compound A6, 5-{5-[N-(2-Fluorobenzyl)-N-methylaminocarbonyl]-2,4-dihydroxyphenyl}-1-(2-methylphenyl)-1H-pyrazole], the figure is 54 nM; as for `Cc1ccccc1-n1nccc1-c1cc(C(=O)N(C)Cc2cccc(F)c2)c(O)cc1O` [Compound A7, 5-{5-[N-(3-Fluorobenzyl)-N-methylaminocarbonyl]-2,4-dihydroxyphenyl}-1-(2-methylphenyl)-1H-pyrazole], 30 nM; as for `COc1ccccc1CN(C)C(=O)c1cc(-c2ccnn2-c2ccccc2C)c(O)cc1O` [Compound A9, 5-{5-[N-(2-Methoxybenzyl)-N-methylaminocarbonyl]-2,4-dihydroxyphenyl}-1-(2-methylphenyl)-1H-pyrazole], 40 nM.

Regarding `Cc1ccccc1-n1nccc1-c1cc(C(=O)N(C)Cc2ccccc2)c(O)cc1O` [Compound A17, 5-[5-(N-Benzyl-N-methylaminocarbonyl)-2,4-dihydroxyphenyl]-1-(2-methylphenyl)-1H-pyrazole], the IC50 stood at 33 nM. As for `Cc1ccccc1-n1nccc1-c1cc(C(=O)N(C)Cc2cccc(Br)c2)c(O)cc1O` [Compound A20, 5-{5-[N-(3-Bromobenzyl)-N-methylaminocarbonyl]-2,4-dihydroxyphenyl}-1-(2-methylphenyl)-1H-pyrazole], the IC50 was determined as 31 nM. Consider `Cc1ccccc1CN(C)C(=O)c1cc(-c2ccnn2-c2ccccc2C)c(O)cc1O` [Compound A23, 5-{5-[N-(2-Methylbenzyl)-N-methylaminocarbonyl]-2,4-dihydroxyphenyl}-1-(2-methylphenyl)-1H-pyrazole], for which the IC50 came out at 27 nM. As for `Cc1ccc(CN(C)C(=O)c2cc(-c3ccnn3-c3ccccc3C)c(O)cc2O)c(C)c1` [Compound A24, 5-{5-[N-(2,4-Dimethylbenzyl)-N-methylaminocarbonyl]-2,4-dihydroxyphenyl}-1-(2-methylphenyl)-1H-pyrazole], the figure is 20 nM.

In the case of `Cc1ccccc1-n1nccc1-c1cc(C(=O)N(C)Cc2ccc3c(c2)OCO3)c(O)cc1O` [Compound A25], the IC50 was found to be 54 nM. As for `Cc1ccccc1-n1nccc1-c1cc(C(=O)N(C)Cc2c(F)cccc2Cl)c(O)cc1O` [Compound A30, 5-{5-[N-(2-Chloro-6-fluorobenzyl)-N-methylaminocarbonyl]-2,4-dihydroxyphenyl}-1-(2-methylphenyl)-1H-pyrazole], the figure is 26 nM; as for `COc1ccc(CN(C)C(=O)c2cc(-c3ccnn3-c3ccccc3C)c(O)cc2O)c(OC)c1` [Compound A31, 5-{5-[N-(2,4-Dimethoxybenzyl)-N-methylaminocarbonyl]-2,4-dihydroxyphenyl}-1-(2-methylphenyl)-1H-pyrazole], 320 nM. On to `COc1ccc(Cl)cc1CN(C)C(=O)c1cc(-c2ccnn2-c2ccccc2C)c(O)cc1O` [Compound A32, 5-{5-[N-(3-Chloro-6-methoxybenzyl)-N-methylaminocarbonyl]-2,4-dihydroxyphenyl}-1-(2-methylphenyl)-1H-pyrazole], for which the IC50 worked out at 52 nM. As for `Cc1ccccc1-n1nccc1-c1cc(C(=O)N(C)Cc2ccc(Cl)cc2Cl)c(O)cc1O` [Compound A35, 5-{5-[N-(2,4-Dichlorobenzyl)-N-methylaminocarbonyl]-2,4-dihydroxyphenyl}-1-(2-methylphenyl)-1H-pyrazole], the figure is 220 nM; as for `CN(Cc1ccccn1)C(=O)c1cc(-c2ccnn2-c2ccccc2Cl)c(O)cc1O` [Compound A60, 5-{5-[N-(Pyridin-2-ylmethyl)-N-methylaminocarbonyl]-2,4-dihydroxyphenyl}-1-(2-chlorophenyl)-1H-pyrazole], 160 nM.
